Here are results for seven compounds from ChEMBL document CHEMBL4257221, “Peptides comprising non-natural amino acids and methods of making and using the same” (2016).

In assay [1] the target is T1, Vasoactive intestinal polypeptide receptor 1 (Homo sapiens, UniProt P32241).
T1 sequence (P32241 whole entry): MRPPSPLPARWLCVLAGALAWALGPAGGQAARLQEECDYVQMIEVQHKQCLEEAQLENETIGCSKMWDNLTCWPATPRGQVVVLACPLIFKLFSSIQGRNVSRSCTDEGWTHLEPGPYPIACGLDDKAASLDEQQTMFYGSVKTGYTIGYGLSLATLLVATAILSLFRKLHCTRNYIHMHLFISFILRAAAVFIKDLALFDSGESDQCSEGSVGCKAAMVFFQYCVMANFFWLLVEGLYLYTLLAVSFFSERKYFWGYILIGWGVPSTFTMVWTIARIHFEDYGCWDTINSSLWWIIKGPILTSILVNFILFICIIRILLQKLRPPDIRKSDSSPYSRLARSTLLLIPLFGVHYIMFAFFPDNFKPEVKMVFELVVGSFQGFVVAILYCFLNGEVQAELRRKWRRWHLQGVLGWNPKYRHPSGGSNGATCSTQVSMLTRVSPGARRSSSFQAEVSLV
The assay can be described thus: Agonist activity at human VIPR1 expressed in CHOK1 cells assessed as intracellular cAMP accumulation after 60 mins by PathHunter assay. It is filed as functional, cell-based. A general note: Cyclic AMP is a second messenger, typically raised through Gs and lowered through Gi signalling.

Assay [2] deals with T2, Vasoactive intestinal polypeptide receptor 2 (Homo sapiens, UniProt P41587).
T2 sequence (P41587 whole entry): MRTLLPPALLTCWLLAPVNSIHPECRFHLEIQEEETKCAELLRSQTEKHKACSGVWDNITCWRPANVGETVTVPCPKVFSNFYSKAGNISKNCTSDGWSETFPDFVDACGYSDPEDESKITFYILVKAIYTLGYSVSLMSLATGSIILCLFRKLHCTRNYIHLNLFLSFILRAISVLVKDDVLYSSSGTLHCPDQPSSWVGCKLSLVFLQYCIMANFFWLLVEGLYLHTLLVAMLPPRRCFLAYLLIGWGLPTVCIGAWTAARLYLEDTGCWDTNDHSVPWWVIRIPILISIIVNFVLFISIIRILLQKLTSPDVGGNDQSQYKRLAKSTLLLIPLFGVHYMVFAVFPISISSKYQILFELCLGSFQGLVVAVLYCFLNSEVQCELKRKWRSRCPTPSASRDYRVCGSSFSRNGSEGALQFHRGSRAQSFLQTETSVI
The assay can be described thus: Agonist activity at human VIPR2 expressed in CHOK1 cells assessed as intracellular cAMP accumulation after 60 mins by PathHunter assay. It is filed as functional, cell-based.

Numbered stars: 1 amine (or outer) side, 2 acyl side, 3 side chain; on linkers, the order of the positions; unused ones are H or OH. Square brackets hold non-standard residues; d marks the D form. Peptide text beside a SMILES is read from it. ξ: configuration not given here. X1 = O=C([C@H]1CCC[C@@H]1N[*:1])[*:2]; X2 = O=C([C@H]1CNC[C@@H]1N[*:1])[*:2]; β3hN = NC(=O)C[C@H](N)CC(=O)O; β3hV = CC(C)[C@H](N)CC(=O)O; ξβ3hK = NCCCCC(N)CC(=O)O; Aib = CC(C)(N)C(=O)O; βAla = NCCC(=O)O Bounds are passed on as bounds.

Regarding `CC(=O)N[C@@H](Cc1cnc[nH]1)C(=O)N[C@@H](CO)C(=O)N[C@@H](CC(=O)O)C(=O)N[C@@H](C)C(=O)N[C@H](C(=O)N[C@@H](Cc1ccccc1)C(=O)N[C@H](C(=O)N[C@@H](CCC(=O)O)C(=O)N[C@@H](CC(N)=O)C(=O)N[C@@H](Cc1ccc(O)cc1)C(=O)N[C@H](C(=O)N[C@@H](CCCCN)C(=O)N[C@@H](CC(C)C)C(=O)N[C@@H](CCCNC(=N)N)C(=O)N[C@@H](CCCCN)C(=O)N[C@@H](CCC(N)=O)C(=O)N[C@H]1CCC[C@@H]1C(=O)N[C@@H](C)C(=O)N[C@@H](C)C(=O)N[C@@H](CCCCN)C(=O)N[C@H]1CNC[C@@H]1C(=O)N[C@@H](Cc1ccc(O)cc1)C(=O)N[C@@H](CC(C)C)C(=O)N[C@H]1CCC[C@@H]1C(=O)N[C@@H](CC(=O)O)C(=O)N[C@@H](CC(C)C)C(=O)N[C@@H](CCCCN)C(=O)NC(CCCCN)CC(=O)NCC(=O)NCC(=O)N[C@H](C(=O)O)[C@@H](C)O)[C@@H](C)O)[C@@H](C)O)C(C)C` (stereo partly drawn) (Ac-HSDAVFTENYTKLRKQ[X1]AAK[X2]YL[X1]DLK[ξβ3hK]GGT-OH), the results for the half-maximal effective concentration (EC50) in assay [1] and in assay [2] were 9.52 nM and 0.422 nM, respectively.
For `CC(=O)N[C@@H](Cc1cnc[nH]1)C(=O)N[C@@H](CO)C(=O)N[C@@H](CC(=O)O)C(=O)N[C@@H](C)C(=O)N[C@H](C(=O)N[C@@H](Cc1ccccc1)C(=O)N[C@H](C(=O)N[C@@H](CCC(=O)O)C(=O)N[C@@H](CC(N)=O)C(=O)N[C@@H](Cc1ccc(O)cc1)C(=O)N[C@H](C(=O)N[C@@H](CCCCN)C(=O)N[C@@H](CC(C)C)C(=O)N[C@@H](CCCNC(=N)N)C(=O)N[C@@H](CCCCN)C(=O)N[C@@H](CCC(N)=O)C(=O)N[C@H]1CCC[C@@H]1C(=O)N[C@@H](C)C(=O)N[C@@H](C)C(=O)N[C@H]1CNC[C@@H]1C(=O)N[C@@H](CCCCN)C(=O)N[C@@H](Cc1ccc(O)cc1)C(=O)N[C@@H](CC(C)C)C(=O)N[C@H]1CCC[C@@H]1C(=O)N[C@@H](CC(=O)O)C(=O)N[C@@H](CC(C)C)C(=O)NC(CCCCN)CC(=O)N[C@@H](CCCCN)C(=O)NCC(=O)NCC(=O)N[C@H](C(=O)O)[C@@H](C)O)[C@@H](C)O)[C@@H](C)O)C(C)C` (stereo partly drawn) (Ac-HSDAVFTENYTKLRKQ[X1]AA[X2]KYL[X1]DL[ξβ3hK]KGGT-OH), the figures for the concentration giving a half-maximal response (EC50) in assay [1] and in assay [2] were 218 nM and 0.18 nM, respectively.
For `CC(=O)N[C@@H](Cc1cnc[nH]1)C(=O)NC(C)(C)C(=O)N[C@@H](CC(=O)O)C(=O)N[C@@H](C)C(=O)N[C@H](C(=O)N[C@@H](Cc1ccccc1)C(=O)N[C@H](C(=O)N[C@@H](CCC(=O)O)C(=O)N[C@@H](CC(N)=O)C(=O)N[C@@H](Cc1ccc(O)cc1)C(=O)N[C@H](C(=O)N[C@@H](CCCCN)C(=O)N[C@@H](CC(C)C)C(=O)N[C@@H](CCCNC(=N)N)C(=O)N[C@@H](CCCCN)C(=O)N[C@@H](CCC(N)=O)C(=O)N[C@@H](CC(C)C)C(=O)N[C@@H](C)C(=O)N[C@@H](C)C(=O)N[C@H]1CNC[C@@H]1C(=O)N[C@@H](CCCCN)C(=O)N[C@@H](Cc1ccc(O)cc1)C(=O)N[C@H]1CCC[C@@H]1C(=O)N[C@@H](CC(N)=O)C(=O)N[C@@H](CC(=O)O)C(=O)N[C@@H](CC(C)C)C(=O)NC(CCCCN)CC(=O)N[C@@H](CCCCN)C(=O)NCC(=O)NCCC(=O)N[C@H](C(=O)O)[C@@H](C)O)[C@@H](C)O)[C@@H](C)O)C(C)C` (stereo partly drawn) (Ac-H[Aib]DAVFTENYTKLRKQLAA[X2]KY[X1]NDL[ξβ3hK]KG[βAla]T-OH), in that order: 516 nM and 0.529 nM.
As for `CC(=O)N[C@@H](Cc1cnc[nH]1)C(=O)NC(C)(C)C(=O)N[C@@H](CC(=O)O)C(=O)N[C@@H](C)C(=O)N[C@H](CC(=O)N[C@@H](Cc1ccccc1)C(=O)N[C@H](C(=O)N[C@@H](CCC(=O)O)C(=O)N[C@@H](CC(N)=O)C(=O)N[C@@H](Cc1ccc(O)cc1)C(=O)N[C@H](C(=O)N[C@@H](CCCCN)C(=O)N[C@@H](CC(C)C)C(=O)N[C@@H](CCCNC(=N)N)C(=O)N[C@@H](CCCCN)C(=O)N[C@@H](CCC(N)=O)C(=O)N[C@@H](CC(C)C)C(=O)N[C@@H](C)C(=O)N[C@@H](C)C(=O)N[C@H]1CNC[C@@H]1C(=O)N[C@@H](CCCCN)C(=O)N[C@@H](Cc1ccc(O)cc1)C(=O)N[C@H]1CCC[C@@H]1C(=O)N[C@@H](CC(N)=O)C(=O)N[C@@H](CC(=O)O)C(=O)N[C@@H](CC(C)C)C(=O)NC(CCCCN)CC(=O)N[C@@H](CCCCN)C(=O)NCC(=O)NCCC(=O)N[C@H](C(=O)O)[C@@H](C)O)[C@@H](C)O)[C@@H](C)O)C(C)C` (stereo partly drawn) (Ac-H[Aib]DA[β3hV]FTENYTKLRKQLAA[X2]KY[X1]NDL[ξβ3hK]KG[βAla]T-OH), the EC50 was above 1000 nM in assay [1] and 0.816 nM in assay [2].
Take `CC(=O)N[C@@H](Cc1cnc[nH]1)C(=O)NC(C)(C)C(=O)N[C@@H](CC(=O)O)C(=O)N[C@@H](C)C(=O)N[C@H](CC(=O)N[C@@H](Cc1ccccc1)C(=O)N[C@H](C(=O)N[C@@H](CCC(=O)O)C(=O)N[C@@H](CC(N)=O)CC(=O)N[C@@H](Cc1ccc(O)cc1)C(=O)N[C@H](C(=O)N[C@@H](CCCCN)C(=O)N[C@@H](CC(C)C)C(=O)N[C@@H](CCCNC(=N)N)C(=O)N[C@@H](CCCCN)C(=O)N[C@@H](CCC(N)=O)C(=O)N[C@@H](CC(C)C)C(=O)N[C@@H](C)C(=O)N[C@@H](C)C(=O)N[C@H]1CNC[C@@H]1C(=O)N[C@@H](CCCCN)C(=O)N[C@@H](Cc1ccc(O)cc1)C(=O)N[C@H]1CCC[C@@H]1C(=O)N[C@@H](CC(N)=O)C(=O)N[C@@H](CC(=O)O)C(=O)N[C@@H](CC(C)C)C(=O)NC(CCCCN)CC(=O)N[C@@H](CCCCN)C(=O)NCC(=O)NCCC(=O)N[C@H](C(=O)O)[C@@H](C)O)[C@@H](C)O)[C@@H](C)O)C(C)C` (stereo partly drawn) (Ac-H[Aib]DA[β3hV]FTE[β3hN]YTKLRKQLAA[X2]KY[X1]NDL[ξβ3hK]KG[βAla]T-OH): the EC50 was above 1000 nM in assay [1] and 3.47 nM in assay [2].
As for `CC(=O)N[C@@H](Cc1cnc[nH]1)C(=O)N[C@H]1CCC[C@@H]1C(=O)N[C@@H](CC(=O)O)C(=O)N[C@@H](C)C(=O)N[C@H](C(=O)N[C@@H](Cc1ccccc1)C(=O)N[C@H](C(=O)N[C@@H](CCC(=O)O)C(=O)N[C@@H](CC(N)=O)C(=O)N[C@@H](Cc1ccc(O)cc1)C(=O)N[C@H](C(=O)N[C@@H](CCCCN)C(=O)N[C@@H](CC(C)C)C(=O)N[C@@H](CCCNC(=N)N)C(=O)N[C@@H](CCCCN)C(=O)N[C@@H](CCC(N)=O)C(=O)N[C@@H](CC(C)C)C(=O)N[C@@H](C)C(=O)N[C@@H](C)C(=O)N[C@H]1CNC[C@@H]1C(=O)N[C@@H](CCCCN)C(=O)N[C@@H](Cc1ccc(O)cc1)C(=O)N[C@H]1CCC[C@@H]1C(=O)N[C@@H](CC(N)=O)C(=O)N[C@@H](CC(=O)O)C(=O)N[C@@H](CC(C)C)C(=O)NC(CCCCN)CC(=O)N[C@@H](CCCCN)C(=O)NCC(=O)NCCC(=O)N[C@H](C(=O)O)[C@@H](C)O)[C@@H](C)O)[C@@H](C)O)C(C)C` (stereo partly drawn) (Ac-H[X1]DAVFTENYTKLRKQLAA[X2]KY[X1]NDL[ξβ3hK]KG[βAla]T-OH), the EC50 in assay [1] was above 1000 nM; in assay [2], 0.593 nM.
For the compound `CC(=O)N[C@@H](Cc1cnc[nH]1)C(=O)N[C@H]1CCC[C@@H]1C(=O)N[C@@H](CC(=O)O)C(=O)N[C@@H](C)C(=O)N[C@H]1CCC[C@@H]1C(=O)N[C@@H](Cc1ccccc1)C(=O)N[C@H](C(=O)N[C@@H](CCC(=O)O)C(=O)N[C@H]1CCC[C@@H]1C(=O)N[C@@H](Cc1ccc(O)cc1)C(=O)N[C@H](C(=O)N[C@@H](CCCCN)C(=O)N[C@@H](CC(C)C)C(=O)N[C@@H](CCCNC(=N)N)C(=O)N[C@@H](CCCCN)C(=O)N[C@@H](CCC(N)=O)C(=O)N[C@@H](CC(C)C)C(=O)N[C@@H](C)C(=O)N[C@@H](C)C(=O)N[C@H]1CNC[C@@H]1C(=O)N[C@@H](CCCCN)C(=O)N[C@@H](Cc1ccc(O)cc1)C(=O)N[C@H]1CCC[C@@H]1C(=O)N[C@@H](CC(N)=O)C(=O)N[C@@H](CC(=O)O)C(=O)N[C@@H](CC(C)C)C(=O)NC(CCCCN)CC(=O)N[C@@H](CCCCN)C(=O)NCC(=O)NCCC(=O)N[C@H](C(=O)O)[C@@H](C)O)[C@@H](C)O)[C@@H](C)O` (stereo partly drawn) (Ac-H[X1]DA[X1]FTE[X1]YTKLRKQLAA[X2]KY[X1]NDL[ξβ3hK]KG[βAla]T-OH), the EC50 in assay [1] is above 1000 nM; in assay [2], 5.58 nM.

In general, EC50 refers to the concentration giving half of the maximal effect.
